These results are taken from patent US20110245081A1, “HERBICIDE COMPOSITION FOR LAWN” (priority 2006, published 2011).

Where two headings read alike, the source gives them in different places.

Format in all cases: in vivo
Series [1] concerns Digitaria ciliayis (Retz.) Koeler. The experiment in a line: Test Example 1: soil treatment by mixing, herbicidal effect. The note with it: 1080 h. As to the method: (§1) On a field of Zoysia japonica sectioned to 100 cm×100 cm, seeds of Digitaria ciliayis (Retz.) Koeler, Poa annua L., Polygonum hydropiper L., Euphorbia supine Rafin, Oxalis comiculata L., Cyperus microiria were sown and covered with 0.5 cm soil. Seven days after weeds sowing, treatment was conducted with watering amount of 200 cc/m^2. The prescribed amount of test compound was sprayed with a small spray in the form of the formulation prepared according to the above-mentioned examples or a wettable powder of a single compound diluted with water.
(§2) The herbicidal effect and the degree of phytotoxicity to the lawn were studied 45 days after the agent treatment.
(§3) Herbicidal effect: 100%: complete death 0%: no effect Phytotoxicity: 100%: complete death 0%: no phytotoxicity
(§4) In the tables, ai means the effective component.

The subject of series [2] is Oxalis corniculata L. The series is described as above. The note with it: 1080 h. As to the method:
as §1, §2, §3, §4

For series [3], the system named is Poa annua L. The description is as above. The note with it: 1080 h. As to the method: as §1, §2, §3, §4
Series [4] has as its system Polygonum blumei. The description is as above. The note with it: 1080 h.
In series [5] the test system is Erigeron canadensis. The series is described as above. The note with it: 1080 h.
The subject of series [6] is Chenopodium ficifolium. The description is as above. The note with it: 1080 h.
The test system of series [7] is Digitaria ciliayis (Retz.) Koeler. Kind of series: Test Example 2: foliage and soil treatment by mixing, herbicidal effect. The note with it: 1080 h. On the procedure: as §1, §3
(§5) A test section of Zoysia matrella had been prepared in the same method as in the Test Example 1 and on the 28th day after weeds sowing a treatment was conducted with watering amount of 200 cc/m2. The prescribed amount of test compound was sprayed with a small spray in the form of the formulation prepared according to the aforementioned examples or a wettable powder of a single compound diluted with water.
(§6) The herbicidal effect and the degree of phytotoxicity to the lawn were studied 45 days after the agent treatment in the same manner as Test Example 1.

The subject of series [8] is Oxalis corniculata L. Described as above. The note with it: 1080 h. On the procedure: as §1, §3, §5, §6
Series [9] concerns Poa annua L. Described as above. The note with it: 1080 h. On the procedure: as §1, §3, §5, §6
The test system of series [10] is Polygonum blumei. The description is as above. The note with it: 1080 h. As to the method: as §1, §3, §5, §6
For series [11], the system named is Erigeron canadensis. Described as above. The note with it: 1080 h.
Series [12] relates to Chenopodium ficifolium. Described as above. The note with it: 1080 h.
Series [13] has as its system Zoysia matrella. The note with it: soil treatment, 45 days.
For series [14], the system named is Zoysia matrella. The note with it: foliage and soil treatment, 45 days.
Setting [15] is: soil treatment, 45 days, Indanofan 1000 g ai/ha.
Setting [16] is: foliage and soil treatment, 45 days, Indanofan 1000 g ai/ha.
Where [17] appears, read: soil treatment, 45 days, Asulam 1500 g ai/ha.
Setting [18] is: foliage and soil treatment, 45 days, Asulam 1500 g ai/ha.
Setting [19] is: read-out: Herbicidal effect Digitaria ciliayis (Retz.) Koeler.
Setting [20] is: read-out: Herbicidal effect Oxalis corniculata L.
[21] abbreviates: read-out: Herbicidal effect Poa annua L.
Where [22] appears, read: read-out: Herbicidal effect Polygonum blumei.
Setting [23] is: read-out: Herbicidal effect Chenopodium ficifolium.
[24] abbreviates: soil treatment, 45 days, Ethoxysulfuron 125 g ai/ha.
The mark [25] stands for this setting: foliage and soil treatment, 45 days, Ethoxysulfuron 125 g ai/ha.
Setting [26] is: soil treatment, 45 days, Fentrazamide 1500 g ai/ha.
Where [27] appears, read: foliage and soil treatment, 45 days, Fentrazamide 1500 g ai/ha.
[28] abbreviates: soil treatment, 45 days, Oxaziclomefone 150 g ai/ha.
Where [29] appears, read: foliage and soil treatment, 45 days, Oxaziclomefone 150 g ai/ha.

As for `CCC1(CC2(c3cccc(Cl)c3)CO2)C(=O)c2ccccc2C1=O` (racemic) [Indanofan, (RS)-2-[2-(3-chlorophenyl)-2,3-epoxypropyl]-2-ethylindan-1,3-dione], the pest or weed control at 1000 g/ha in [1] (setting [15]) was 0%; with Oxalis corniculata L. [2] (setting [15]), 50%; with Poa annua L. [3] (setting [15]) it was 0%; in the series with Polygonum blumei [4] (setting [15]), 60%; in the series on Erigeron canadensis [5] (setting [15]), 75%; in the series on Chenopodium ficifolium [6] (setting [15]), 70%. Further, the pest or weed control at 1000 g/ha was 30% in [7] (setting [16]); 0% in the series with Oxalis corniculata L. [8] (setting [16]); 30% in the series with Poa annua L. [9] (setting [16]); 0% in the series on Polygonum blumei [10] (setting [16]); 0% with Erigeron canadensis [11] (setting [16]); 20% with Chenopodium ficifolium [12] (setting [16]).

Consider `COC(=O)NS(=O)(=O)c1ccc(N)cc1` [Asulam, methyl sulfanyl carbamate], for which the pest or weed control at 1500 g/ha was found to be 20% in series [1] (setting [17]); 0% in the series on Oxalis corniculata L. [2] (setting [17]); 20% in the series on Poa annua L. [3] (setting [17]); 0% with Polygonum blumei [4] (setting [17]); 0% in the series with Erigeron canadensis [5] (setting [17]); 0% in the series with Chenopodium ficifolium [6] (setting [17]). The pest or weed control at 1500 g/ha stood at 40% in series [7] (setting [18]); 60% in the series with Oxalis corniculata L. [8] (setting [18]); 30% in the series on Poa annua L. [9] (setting [18]); 70% in the series on Polygonum blumei [10] (setting [18]); 60% in the series with Erigeron canadensis [11] (setting [18]); 60% in the series with Chenopodium ficifolium [12] (setting [18]).

Turning to `CCN(CC)C(=O)n1cnc(S(=O)(=O)c2c(C)cc(C)cc2C)n1` [Cafenstrole, N,N-diethyl-3-meticylsulfonyl-1H-1,2,4-triazol-1-carboxamide], the pest or weed control at 2000 g/ha in series [1] (setting [19]) came out at 0%; with Oxalis corniculata L. [2] (setting [20]), 50%; with Poa annua L. [3] (setting [21]), 0%; with Polygonum blumei [4] (setting [22]), 60%; in the series with Erigeron canadensis [5] (soil, read-out: Herbicidal effect Erigeron canadensis) it was 75%; in the series with Chenopodium ficifolium [6] (setting [23]), 70%. The pest or weed control at 2000 g/ha in series [7] (setting [19]) was determined as 40%; in the series with Oxalis corniculata L. [8] (setting [20]), 0%; in the series with Poa annua L. [9] (setting [21]), 30%; with Polygonum blumei [10] (setting [22]), 0%; with Erigeron canadensis [11] (read-out: Herbicidal effect Erigeron canadensis), 0%; with Chenopodium ficifolium [12] (setting [23]), 20%. In addition, the Zoysia matrella phytotoxicity with Zoysia matrella [13] (Cafenstrole 2000 g ai/ha) and in the series on Zoysia matrella [14] (Cafenstrole 2000 g ai/ha) was 0% each time.

With `CCOc1ccccc1OS(=O)(=O)NC(=O)Nc1nc(OC)cc(OC)n1` [Ethoxysulfuron, 1-(4,6-dimethoxypyrimidin-2-yl)-3-(2-ethoxyphenoxysulfonyl)urea], the pest or weed control at 125 g/ha in series [1] (setting [24]) was 0%; in the series on Oxalis corniculata L. [2] (setting [24]), 50%; with Poa annua L. [3] (setting [24]) it was 0%; in the series with Polygonum blumei [4] (setting [24]), 60%; in the series with Erigeron canadensis [5] (setting [24]) it was 75%; with Chenopodium ficifolium [6] (setting [24]) it was 70%. Also, the pest or weed control at 125 g/ha in series [7] (setting [25]) came out at 0%; with Oxalis corniculata L. [8] (setting [25]), 30%; in the series with Poa annua L. [9] (setting [25]), 0%; in the series on Polygonum blumei [10] (setting [25]), 40%; with Erigeron canadensis [11] (setting [25]) it was 60%; in the series with Chenopodium ficifolium [12] (setting [25]) it was 50%.

Regarding `CCN(C(=O)n1nnn(-c2ccccc2Cl)c1=O)C1CCCCC1` [Fentrazamide, 4-(2-chlorophenyl)-N-cyclohexyl-N-ethyl-4,5-dihydro-5-oxo-1H-terazol-1-carboxamide], the pest or weed control at 1500 g/ha in series [1] (setting [26]) is 90%; in the series on Oxalis corniculata L. [2] (setting [26]), 0%; in the series on Poa annua L. [3] (setting [26]), 80%; with Polygonum blumei [4] (setting [26]), 0%; in the series on Erigeron canadensis [5] (setting [26]), 0%; in the series on Chenopodium ficifolium [6] (setting [26]), 20%. In addition, the pest or weed control at 1500 g/ha in series [7] (setting [27]) is 40%; with Oxalis corniculata L. [8] (setting [27]) it was 0%; in the series with Poa annua L. [9] (setting [27]) it was 30%; in the series on Polygonum blumei [10] (setting [27]), 0%; with Erigeron canadensis [11] (setting [27]), 0%; with Chenopodium ficifolium [12] (setting [27]), 0%. Besides, the Zoysia matrella phytotoxicity with Zoysia matrella [13] (Fentrazamide 1500 g ai/ha) and in the series with Zoysia matrella [14] (Fentrazamide 1500 g ai/ha) was 0% each time.

As to `CC1=C(c2ccccc2)C(=O)N(C(C)(C)c2cc(Cl)cc(Cl)c2)CO1` [Oxaziclomefone, 3-[1-(3,5-dichlorophenyl)-1-methylethyl]-3,4-dihydro-6-methyl-5-phenyl-2H-1,3-oxazin-4-one], the pest or weed control at 150 g/ha in series [1] (setting [28]) was 90%; in the series on Oxalis corniculata L. [2] (setting [28]) it was 0%; in the series with Poa annua L. [3] (setting [28]) it was 90%; in the series with Polygonum blumei [4] (setting [28]), 0%; with Erigeron canadensis [5] (setting [28]), 0%; in the series with Chenopodium ficifolium [6] (setting [28]), 0%. Moreover, the pest or weed control at 150 g/ha worked out at 30% in [7] (setting [29]); 0% in the series with Oxalis corniculata L. [8] (setting [29]); 30% with Poa annua L. [9] (setting [29]); 0% in the series with Polygonum blumei [10] (setting [29]); 0% in the series on Erigeron canadensis [11] (setting [29]); 0% in the series with Chenopodium ficifolium [12] (setting [29]).
